Data taken from patent US12180193B2, “Accelerating fibrosarcoma protein degrading compounds and associated methods of use” (Arvinas Operations, Inc., priority 2020, dated 2024).

Key:
[1] = target: T1, BRAF G466V (Homo sapiens, UniProt P15056, G466V); assay: Cellular assay of target protein degradation, T-Rex 293 cells stably transfected with HA-BRAF G466V (HA immunofluorescence, high content imaging); format: cell-based; conditions: T-Rex 293 HA-BRAF G466V
T1 construct: expressed in transfected cells
How it was run: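 24 h compound, 30 nM–3 pM final, 0.1% DMSO, 37° C; HA-BRAF G466V induced with 0.75 ng/mL doxycycline. PFA fix, Triton perm, anti-HA + Alexa fluor secondary, Hoechst/phalloidin counterstain; imaging. DC50, Dmax (% of control).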

[2] = target: T2, BRAF V600E (Homo sapiens, UniProt P15056, V600E); assay: Cellular assay of target protein degradation, T-Rex 293 cells stably transfected with HA-BRAF_V600E (HA immunofluorescence, high content imaging); format: cell-based; conditions: T-Rex 293 HA-BRAF V600E
T2 construct: expressed in transfected cells
How it was run: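 24 h compound exposure, 1 μM–0.1 nM final, 0.1% DMSO, 37 °C; cells induced with 1 ng/mL doxycycline. PFA fix, Triton permeabilize, anti-HA overnight 4 °C, Hoechst/phalloidin counterstain. Output: DC50, Dmax as % control.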

T1 sequence (P15056 whole entry G466V): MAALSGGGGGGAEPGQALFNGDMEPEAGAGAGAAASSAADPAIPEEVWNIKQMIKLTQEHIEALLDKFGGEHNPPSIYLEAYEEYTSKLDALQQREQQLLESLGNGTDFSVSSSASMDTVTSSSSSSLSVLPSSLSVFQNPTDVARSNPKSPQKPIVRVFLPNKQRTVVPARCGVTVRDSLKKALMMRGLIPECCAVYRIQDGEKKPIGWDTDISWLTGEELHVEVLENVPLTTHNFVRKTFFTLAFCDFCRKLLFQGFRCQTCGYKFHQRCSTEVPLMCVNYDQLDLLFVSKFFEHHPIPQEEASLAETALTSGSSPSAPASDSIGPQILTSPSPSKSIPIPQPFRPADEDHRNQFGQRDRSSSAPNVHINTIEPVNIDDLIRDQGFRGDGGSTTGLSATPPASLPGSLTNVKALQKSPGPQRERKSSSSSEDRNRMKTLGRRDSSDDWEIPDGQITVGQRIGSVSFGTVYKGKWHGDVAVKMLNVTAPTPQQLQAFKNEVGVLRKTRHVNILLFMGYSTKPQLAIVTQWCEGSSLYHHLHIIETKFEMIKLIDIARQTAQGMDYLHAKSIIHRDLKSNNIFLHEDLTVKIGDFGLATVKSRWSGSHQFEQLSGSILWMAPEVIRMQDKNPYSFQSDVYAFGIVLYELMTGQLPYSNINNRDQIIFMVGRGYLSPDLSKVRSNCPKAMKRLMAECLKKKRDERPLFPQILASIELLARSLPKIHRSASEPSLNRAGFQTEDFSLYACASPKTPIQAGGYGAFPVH
T2 sequence (P15056 whole entry V600E): as the sequence (P15056 whole entry G466V) above, with V466G, V600E counted along it

## O=C1CCC(N2Cc3cc(N4CCC(N5CCC56CN(c5ccc(-c7cnc8[nH]cc(C(=O)c9c(F)ccc(NS(=O)(=O)N%10CC[C@@H](F)C%10)c9F)c8c7)cc5)C6)CC4)ccc3C2=O)C(=O)N1 (stereo partly shown) [Example 9]
[1]; half maximal degradation, read-out: BRaf G466V DC50
  DC50: 0.001 to 0.01 µM
[1]; maximum degradation observed
  Dmax: 35 to 70%
[2]; half maximal degradation, read-out: BRaf V600E DC50
  DC50: 0.05 to 0.5 µM
[2]; maximum degradation observed
  Dmax: 35 to 70%
